The values that follow come from US9475814B2, “Chiral N-acyl-5,6,7(8-substituted)-tetrahydro-[1,2,4]triazolo[4,3-a]pyrazines as selective NK-3 receptor antagonists, pharmaceutical composition, methods for use in NK-3 receptor mediated disorders and chiral synthesis thereof” (Euroscreen S.A., priority 2011, dated 2016).

Assay [1] deals with circulating levels of luteinizing hormone (LH). Kind of assay: Castrated male rat model, circulating luteinizing hormone (LH). The format is in vivo. The following applies: single intravenous 10 mg/kg dose, castrated male Sprague-Dawley rats, 1 hour after dosing. The source says: Castrated Male Rat Model to Assess the Effect of Compound of Invention on Circulating Levels of Luteinizing Hormone (LH).
In humans and rodents, castration is well-precedented to permit heightened, persistent GnRH signaling and consequent elevation of circulating LH. Thus, a castrated rat model is used to provide a broad index for measurement of LH inhibition as a marker of test compound inhibition of the GnRH signaling pathway.
Castrated adult male Sprague-Dawley (SD) rats (150-175 g) were purchased from Janvier (St Berthevin, France). […] The animals were allowed 2 weeks of postoperative recovery prior to study. Animals were handled on a daily basis. Standard diet and tap water were provided ad libitum. Animal cage litters were changed once a week. On the study day, animals were acclimated to the procedure room for a period of one hour prior to the initiation of the experiment.
Compounds of the invention were formulated as apyrogen water with 90 g/L (2-Hydroxypropyl)-β-CycloDextrin.
After basal sampling (T0) a single dose of compounds of the invention or vehicle was administrated intravenously to rats. Blood was then collected at 60 min post dosing. Blood samples were obtained via tail vein bleed, drawn into EDTA-containing tubes and centrifuged immediately. […] Serum LH levels were determined using radioimmunoassay kit from RIAZEN—Rat LH, Zentech (Liège, Belgium). […]

Assay [2] has as its system circulating levels of testosterone. Kind of assay: Gonad-intact adult male rat, circulating testosterone. The settings on record: single intravenous 50 mg/kg dose, gonad-intact male Sprague-Dawley rats, over the 210 minute test period (AUC). Type of assay: in vivo.
In a further assay the target is human NK1 receptor (Homo sapiens (Human), UniProt P25103). Description: Human NK1 [3H] substance P binding assay (selectivity). The following applies: read-out: NK1 Ki; CHO membranes, 2 nM [3H] substance P.
The target of a further assay is human NK2 receptor (Homo sapiens (Human), UniProt P21452). Kind of assay: Human NK2 [125I]-Neurokinin A binding assay (selectivity). The following applies: read-out: NK2 Ki; CHO membranes, 0.1 nM [125I]-Neurokinin A.
The target of the next assay is hERG channel (Homo sapiens (Human), UniProt Q12809). Kind of assay: hERG inhibition assay (manual patch-clamp, HEK 293 cells).
Assay [3] has as its target T1, human NK-3 receptor (Homo sapiens (Human), UniProt P29371). Description: Aequorin functional assay with human NK-3 receptor (antagonist testing vs NKA). Type of assay: cell-based. The settings on record: inhibition of NKA (3 nM, EC80) response, CHO cells expressing human NK3 receptor and apoaequorin.
For assay [4], the target named is T1, human NK-3 receptor. Description: 3H-SB222200 binding competition assay with human NK-3 receptor.
Method: ^3H-SB222200 Binding Competition Assay with Human NK-3 Receptor
The membranes were incubated with 5 nM ^3H-SB222200(ARC) in a HEPES 25 mM/NaCl 0.1M/CaCl2 1 mM/MgCl2 5 Mm/BSA 0.5%/Saponin 10 μg/ml buffer at pH 7.4 and various concentrations of compounds of the invention. The amount of ^3H-SB222200 bound to the receptor was determined after filtration by the quantification of membrane associated radioactivity using the TopCount-NXT reader (Packard).
The mark [5] stands for this setting: Table 6, membranes of CHO cells expressing human NK3 receptor, 5 nM 3H-SB222200, read-out: Ki.
Where [6] appears, read: Table 7, human NK-3 receptor, read-out: NK3 Ki.

Where two headings read alike, the source gives them in different places.

hERG channel, sequence (Q12809 whole entry): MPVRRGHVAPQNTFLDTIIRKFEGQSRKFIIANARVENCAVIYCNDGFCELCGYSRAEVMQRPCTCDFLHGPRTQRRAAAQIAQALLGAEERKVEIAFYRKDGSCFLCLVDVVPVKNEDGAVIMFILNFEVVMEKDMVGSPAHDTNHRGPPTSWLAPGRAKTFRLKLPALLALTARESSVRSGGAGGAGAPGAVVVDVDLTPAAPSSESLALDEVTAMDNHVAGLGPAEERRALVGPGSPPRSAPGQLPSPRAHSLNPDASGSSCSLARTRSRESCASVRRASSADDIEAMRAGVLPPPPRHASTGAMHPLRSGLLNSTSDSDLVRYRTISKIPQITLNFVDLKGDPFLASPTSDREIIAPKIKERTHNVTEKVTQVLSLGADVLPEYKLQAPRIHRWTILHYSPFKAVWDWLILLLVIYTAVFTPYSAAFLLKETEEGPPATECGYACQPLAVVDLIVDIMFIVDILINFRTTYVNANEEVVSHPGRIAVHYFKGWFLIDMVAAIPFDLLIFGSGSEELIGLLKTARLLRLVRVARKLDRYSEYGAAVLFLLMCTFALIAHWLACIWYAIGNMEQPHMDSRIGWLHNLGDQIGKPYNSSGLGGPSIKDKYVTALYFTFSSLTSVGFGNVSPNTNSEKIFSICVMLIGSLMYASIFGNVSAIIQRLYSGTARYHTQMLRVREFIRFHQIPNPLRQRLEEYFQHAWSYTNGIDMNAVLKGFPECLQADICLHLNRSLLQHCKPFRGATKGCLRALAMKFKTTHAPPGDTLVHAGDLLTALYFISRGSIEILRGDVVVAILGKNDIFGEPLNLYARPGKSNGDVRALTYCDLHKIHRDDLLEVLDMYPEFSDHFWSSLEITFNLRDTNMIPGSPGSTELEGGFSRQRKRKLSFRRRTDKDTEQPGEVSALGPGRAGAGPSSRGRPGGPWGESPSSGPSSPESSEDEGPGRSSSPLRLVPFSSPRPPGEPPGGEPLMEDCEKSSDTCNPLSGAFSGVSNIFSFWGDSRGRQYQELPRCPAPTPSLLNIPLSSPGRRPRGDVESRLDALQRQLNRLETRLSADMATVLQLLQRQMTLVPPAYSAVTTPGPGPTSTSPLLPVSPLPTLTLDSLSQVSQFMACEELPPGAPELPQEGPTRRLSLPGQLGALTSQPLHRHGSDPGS
T1 sequence (P29371 whole entry): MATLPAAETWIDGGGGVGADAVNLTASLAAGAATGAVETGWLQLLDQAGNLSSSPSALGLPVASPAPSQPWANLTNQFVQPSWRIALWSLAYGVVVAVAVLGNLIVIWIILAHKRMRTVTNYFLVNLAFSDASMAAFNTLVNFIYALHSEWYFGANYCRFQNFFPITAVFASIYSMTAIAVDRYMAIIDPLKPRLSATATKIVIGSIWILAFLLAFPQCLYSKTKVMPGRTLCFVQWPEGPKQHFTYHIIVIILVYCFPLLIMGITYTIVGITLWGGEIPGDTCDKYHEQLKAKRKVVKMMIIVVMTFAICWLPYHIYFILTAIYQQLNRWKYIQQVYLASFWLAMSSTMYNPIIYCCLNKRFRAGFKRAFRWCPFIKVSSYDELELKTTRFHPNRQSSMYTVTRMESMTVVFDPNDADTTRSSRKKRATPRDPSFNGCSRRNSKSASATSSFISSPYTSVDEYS
human NK2 receptor, sequence (P21452 whole entry): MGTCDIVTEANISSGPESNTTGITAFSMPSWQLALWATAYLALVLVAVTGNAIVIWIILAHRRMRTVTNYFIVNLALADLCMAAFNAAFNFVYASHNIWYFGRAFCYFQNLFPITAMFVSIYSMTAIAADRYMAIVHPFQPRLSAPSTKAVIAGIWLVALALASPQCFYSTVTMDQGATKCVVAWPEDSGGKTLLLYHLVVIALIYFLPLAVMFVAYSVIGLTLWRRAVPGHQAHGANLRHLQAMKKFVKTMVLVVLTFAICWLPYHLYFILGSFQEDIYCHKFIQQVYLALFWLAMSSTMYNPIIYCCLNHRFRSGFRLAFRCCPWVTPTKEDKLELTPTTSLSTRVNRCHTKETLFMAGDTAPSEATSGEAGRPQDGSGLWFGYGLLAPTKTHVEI
human NK1 receptor, sequence (P25103 whole entry): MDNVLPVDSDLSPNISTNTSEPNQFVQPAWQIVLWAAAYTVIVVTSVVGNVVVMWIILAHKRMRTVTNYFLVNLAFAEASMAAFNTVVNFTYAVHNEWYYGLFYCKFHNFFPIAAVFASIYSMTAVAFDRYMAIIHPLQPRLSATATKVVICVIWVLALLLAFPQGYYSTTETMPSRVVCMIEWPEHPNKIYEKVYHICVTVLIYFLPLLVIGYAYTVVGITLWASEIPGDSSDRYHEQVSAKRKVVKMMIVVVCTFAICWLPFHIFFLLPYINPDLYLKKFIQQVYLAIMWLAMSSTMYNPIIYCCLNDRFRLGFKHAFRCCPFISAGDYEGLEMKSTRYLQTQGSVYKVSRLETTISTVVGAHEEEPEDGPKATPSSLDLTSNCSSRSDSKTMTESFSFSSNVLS

With `Cc1nc(-c2nnc3n2CCN(C(=O)c2ccc(-c4cccs4)cc2)[C@@H]3C)cs1` [Compound 1, (R)-(8-methyl-3-(2-methylthiazol-4-yl)-5,6-dihydro-[1,2,4]triazolo[4,3-a]pyrazin-7(8H)-yl) (4-(thiophen-2-yl)phenyl)methanone], the “circulating LH levels” value in assay [1] is listed as “significantly suppressed circulating LH levels”. The plasma testosterone levels result in assay [2] is on record as “significantly suppressed plasma testosterone levels”. The results for the Ki on human NK1 receptor and on human NK2 receptor were 12700 nM and 14000 nM, respectively. The IC50 at hERG channel was more than 30000 nM.
On to `Cc1nc(-c2nnc3n2CCN(C(=O)c2ccc(-c4cccs4)cc2)C3)cs1` [Compound 3, (3-(2-methylthiazol-4-yl)-5,6-dihydro-[1,2,4]triazolo[4,3-a]pyrazin-7(8H)-yl)(4-(thiophen-2-yl)phenyl)methanone], for which the IC50 on human NK-3 receptor [3] turned out to be 83 nM; on hERG channel, 26000 nM. For the same compound, the Ki at human NK-3 receptor [4] (setting [5]) is 83 nM; on human NK-3 receptor [4] (setting [6]), 83 nM; on human NK1 receptor, more than 10000 nM; at human NK2 receptor it was more than 10000 nM.
On to `Cc1nc(-c2nnc3n2CCN(C(=O)c2ccc(-c4cccs4)cc2)[C@@H]3C)co1` [Compound 11, (R)-(8-methyl-3-(2-methyloxazol-4-yl)-5,6-dihydro-[1,2,4]triazolo[4,3-a]pyrazin-7(8H)-yl)(4-(thiophen-2-yl)phenyl)methanone], for which the figures for the IC50 against human NK-3 receptor [3] and against hERG channel were 34 nM and more than 30000 nM, respectively. For the same compound, the Ki on human NK-3 receptor [4] (setting [5]) was 44 nM; at human NK-3 receptor [4] (setting [6]), 44 nM; on human NK1 receptor, more than 10000 nM; on human NK2 receptor, more than 10000 nM.
The compound `Cc1csc(-c2nnc3n2CCN(C(=O)c2ccc(-c4cccs4)cc2)[C@@H]3C)n1` [Compound 19, (R)-(8-methyl-3-(4-methylthiazol-2-yl)-5,6-dihydro-[1,2,4]triazolo[4,3-a]pyrazin-7(8H)-yl)(4-(thiophen-2-yl)phenyl)methanone] showed an IC50 on human NK-3 receptor [3] of 8 nM. In addition, the Ki on human NK-3 receptor [4] (setting [5]) came out at 6 nM. In addition, the “circulating LH levels” value in assay [1] is “significantly suppressed circulating LH levels”.
Take `Cc1nc(-c2nnc3n2CCN(C(=O)c2ccc(-c4cccs4)cc2)[C@@H]3C)sc1C` [Compound 22, (R)-(3-(4,5-dimethylthiazol-2-yl)-8-methyl-5,6-dihydro-[1,2,4]triazolo[4,3-a]pyrazin-7(8H)-yl)(4-(thiophen-2-yl)phenyl)methanone]: the IC50 was 21 nM at human NK-3 receptor [3] and 12000 nM at hERG channel. On human NK-3 receptor [4] (setting [5]), the Ki is 21 nM.
For the compound `C[C@@H]1c2nnc(-c3cccc(O)n3)n2CCN1C(=O)c1ccc(-c2cccs2)cc1` [Compound 31, (R)-(3-(6-hydroxypyridin-2-yl)-8-methyl-5,6-dihydro-[1,2,4]triazolo[4,3-a]pyrazin-7(8H)-yl)(4-(thiophen-2-yl)phenyl)methanone], the figures for the IC50 against human NK-3 receptor [3] and at hERG channel were 18 nM and 20000 nM, respectively. For the same compound, the Ki at human NK-3 receptor [4] (setting [5]) was 22 nM; on human NK-3 receptor [4] (setting [6]), 22 nM; at human NK1 receptor, more than 10000 nM; at human NK2 receptor, more than 10000 nM.

One may read the Ki as a dissociation constant, usually derived from enzyme kinetics or from competition with a known ligand. Usually IC50 stands for the midpoint of a concentration-inhibition curve.
